Results: patent US20090169538A1, “Methods of Treating or Preventing Tissue Damage Caused by Increased Blood Flow” (REGENERX BIOPHARMACEUTICALS, INC., priority 2006, published 2009)

Tests used:
[1] = system: cardiac endothelial cells; assay: collagen gel assay, transformation of cardiac endothelial cells to mesenchymal cells; assay type: cell-based; conditions: Tβ4 at physiological concentrations
Description: Synthetic Tβ4 and an antibody to Tβ4 was provided by RegeneRx Biopharmaceuticals, Inc. (3 Bethesda Metro Center, Suite 700, Bethesda, Md. 20814) and were tested in a collagen gel assay to determine their effects on the Transformation of cardiac endothelial cells to mesenchymal cells. It is well established that development of heart valves and other cardiac tissue are formed by epithelial-mesenchymal transformation and that defects in this process can cause serious cardiovascular malformation and injury during development and throughout life. […] Transformation of atrioventricular endocardium into invasive mesenchyme is an aspect of the formation and maintenance of normal cardiac tissue and in the formation of heart valves.
Synthetic Tβ4 and an antibody to Tβ4 was provided by RegeneRx Biopharmaceuticals, Inc. (3 Bethesda Metro Center, Suite 700, Bethesda, Md. 20814) and were tested in a collagen gel assay to determine their effects on the Transformation of cardiac endothelial cells to mesenchymal cells. It is well established that development of heart valves and other cardiac tissue are formed by epithelial-mesenchymal transformation and that defects in this process can cause serious cardiovascular malformation and injury during development and throughout life. […]

myocardial infarction = myocardial infarction by coronary artery ligation, echocardiography and histology; assay type: in vivo, mice
Description: Because of thymosin β4's effects on survival and migration of cardiomyocytes cultured in vitro and phosphorylation of Akt, it was tested whether thymosin β4 might aid in cardiac repair in vivo after myocardial damage. Myocardial infarctions in fifty-eight adult mice were created by coronary artery ligation and treated half with systemic, intracardiac, or systemic plus intracardiac thymosin β4 immediately after ligation and the other half with PBS. Intracardiac injections were done with collagen (control) or collagen mixed with thymosin β4. All forty-five mice that survived two weeks later were interrogated for cardiac function by random-blind ultrasonagraphy at 2 and 4 weeks after infarction by multiple measurements of cardiac contraction. […] Control cardiac injections were performed with the same collagen vehicle making it unlikely that an endogenous reaction to the injection contributed to the cardiac recovery.
To determine the manner in which thymosin β4 improved cardiac function, multiple serial histologic sections of hearts treated with or without thymosin β4 were examined. […] TUNEL positive cells that were also myocytes were rare in the thymosin β4 group but abundant in the control hearts. […] Thus, the decreased scar volume and preserved function of thymosin β4 treated mice were likely due to early preservation of myocardium after infarction through thymosin β4's effects on survival of cardiomyocytes.
Embryonic or adult cardiac tissue was embedded in paraffin and sections used for immunohistochemistry. […] Adult hearts were sectioned at ten equivalent levels from the base of the heart to the apex. Serial sections were used for trichrome sections and reaction with sarcomeric a-actinin, c-kit, Sca-1, Abcg2, and BrdU antibodies and for TUNEL assay (Intergen Company # S7111).
Myocardial infarction was produced in fifty-eight male C57BL/6J mice at 16 weeks of age (25-30 g) by ligation of the left anterior descending coronary artery as previously described. Twenty-nine of the ligated mice received thymosin β4 treatment immediately following ligation and the remaining twenty-nine received PBS injections. Treatment was given intracardiac with thymosin β4 (200 ng in 10 ul collagen) or with 10 ul of collagen; intraperitoneally with thymosin β4 (150 μg in 300 μl PBS) or with […]; or by both intracardiac and intraperitoneal injections. Intraperitoneal injections were given every three days until mice were sacrificed. Doses were based on previous studies of thymosin β4 biodistribution. Hearts were removed, weighed and fixed for histologic sectioning. Additional mice were operated on in a similar fashion for studies 0.5, 1, 3, 6 and 11 days after ligation.
Echocardiograms to assess systolic function were performed using M-mode and 2-dimensional measurements as described previously. The measurements represented the average of six selected cardiac cycles from at least two separate scans performed in random-blind fashion with papillary muscles used as a point of reference for consistency in level of scan. End diastole was defined as the maximal left ventricle (LV) diastolic dimension and end systole was defined as the peak of posterior wall motion. Single outliers in each group were omitted for statistical analysis. Fractional shortening (FS), a surrogate of systolic function, was calculated from LV dimensions as follows: FS=EDD−ESD/EDD×100%. Ejection fraction (EF) was calculated from two-dimensional images. EDD, end diastolic dimension; ESD, end systolic dimension.
Scar volume was calculated using six sections through the heart of each mouse using Openlab 3.03 software (Improvision) similar to previously described. Percent area of collagen deposition was measured on each section in blinded fashion and averaged for each mouse.

[2] = four weeks after infarction, versus control

With thymosin β4 the “transformation of endocardial cells to mesenchymal cells” value [1] was “markedly enhances”, the “cardiac dilation after infarction (EDD and ESD)” value (myocardial infarction; EDD and ESD significantly higher in control group) was “decreased cardiac dilation” and the “degree of improvement, systemic intraperitoneal versus local intracardiac administration” value (myocardial infarction; echocardiography) was “not statistically different”. For the same substance, the “mean fractional shortening of left ventricle” value (myocardial infarction; four weeks after infarction, n=23, 95% confidence interval, p<0.0001, control 23.2) was 37.2+/−1.8%, the mean ejection fraction (myocardial infarction; four weeks after infarction, n=23, 95% confidence interval, p<0.0001, control 28.2) was 57.7+/−3.2% and the “improvement in cardiac fractional shortening” value (myocardial infarction; [2]) was “greater than 60%”. The “improvement in ejection fraction” value (myocardial infarction; [2]) was > 100%, the scar volume (myocardial infarction; six levels of sections through left ventricle, subset of mice, p<0.05) was “significant reduction” and the “left ventricle fractional shortening” value (myocardial infarction; three days after infarction, intracardiac treatment, n=4, 95% confidence interval, p<0.02, controls 28.8) was 39.2+/−2.34%. The ejection fraction (myocardial infarction; three days after infarction, intracardiac treatment, p<0.02, controls 44.7) was 64.2+/−6.69%, the “size of scar (trichrome stain)” value (myocardial infarction; three levels of section, all treated mice) was “reduced” and the “cell death by TUNEL assay in cardiomyocytes” value (myocardial infarction; twenty-four hours after ligation) was “striking decrease”.
